From patent US10703748B2, “Diazanaphthalen-3-yl carboxamides and preparation and use thereof” (Samumed, LLC, priority 2017, dated 2020) come the findings set out here.

For experiment [1], the system named is Wnt-responsive Sp5-Luc reporter in SW480 colon carcinoma cells. Nature of the experiment: Screening assay for Wnt activity (Sp5-Luc reporter gene assay). To be noted: Homo sapiens; for EC50: SW480; for inhibition at 10 µM: SW480, read-out: percent inhibition at 10 μM.
Description: The screening assay for Wnt activity is described as follows.
SW480 colon carcinoma cells were transduced with a lentiviral vector expressing luciferase with a human Sp5 promoter consisting of a sequence of eight TCF/LEF binding sites. […] These stably transduced SW480 cells were expanded in cell culture and used for all further screening activities. Each compound was dissolved in DMSO as a 10 mM stock and used to prepare compound source plates. Serial dilution (1:3, 10-point dose-response curves starting from 10 μM) and compound transfer was performed using the ECHO 550 (Labcyte, Sunnyvale, Calif.) into 384-well white solid bottom assay plates (Greiner Bio-One) with appropriate DMSO backfill for a final DMSO concentration of 0.1%. […] Following incubation, 15 μl of BriteLite Plus luminescence reagent (Perkin Elmer) was added to each well of the 384-well assay plates. The plates were placed on an orbital shaker for 2 min and then luminescence was quantified using the Envision (Perkin Elmer) plate reader.
Experiment [2] relates to α-smooth muscle actin (aSMA) positive LL29 cells. Nature of the experiment: Inhibition of the fibrotic process: αSMA staining in TGF-β1 treated LL29 fibroblasts from IPF patients. To be noted: Homo sapiens, Fibroblast; for EC50: 96 h; for inhibition at 10 µM: read-out: percentage in parentheses after EC50 >10.
Another experiment deals with DYRK1A kinase (Homo sapiens, UniProt Q13627). Description: DYRK1A kinase activity (Ser/Thr 18 peptide Z-lyte FRET assay).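 Further: kinase activity read as coumarin/fluorescein emission ratio after development step, with unphosphorylated and phosphorylated peptide forms setting 0% and 100% controls, values from dose-response curves.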 The class given is biochemical. To be noted: recombinant DYRK1A, 30 μM ATP, one hour at room temperature.
In the next experiment the test system is IL-6. Nature of the experiment: IL-6 inhibition in LPS-stimulated human peripheral blood mononuclear cells (HTRF). To be noted: Homo sapiens, PBMC; for EC50: 22 h; for inhibition at 10 µM: read-out: percentage in parentheses after EC50 >10.
The target in a further experiment is GSK3β kinase (Homo sapiens, UniProt P49841). Nature of the experiment: GSK3β kinase activity (Ser/Thr 09 peptide Z-lyte FRET assay). The class given is biochemical. To be noted: recombinant kinase, 46 μM ATP, one hour at room temperature; read-out: EC50.
Sequence of GSK3β kinase (P49841 whole entry): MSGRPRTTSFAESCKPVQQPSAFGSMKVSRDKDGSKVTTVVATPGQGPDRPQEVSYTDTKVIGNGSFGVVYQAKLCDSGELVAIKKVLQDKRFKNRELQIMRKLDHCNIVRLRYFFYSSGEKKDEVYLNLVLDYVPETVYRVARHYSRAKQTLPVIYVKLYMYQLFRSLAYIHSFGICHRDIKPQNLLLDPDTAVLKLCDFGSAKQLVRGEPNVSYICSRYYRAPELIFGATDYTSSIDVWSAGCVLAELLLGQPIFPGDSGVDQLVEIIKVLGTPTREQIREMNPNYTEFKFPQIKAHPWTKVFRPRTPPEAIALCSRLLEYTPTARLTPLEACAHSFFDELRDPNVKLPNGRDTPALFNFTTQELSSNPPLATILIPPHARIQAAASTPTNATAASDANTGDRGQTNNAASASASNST
Experiment [3] relates to SW480 colon carcinoma cells. Description: Cell viability assay (CellTiter-Glo). To be noted: Homo sapiens; for EC50: SW480, 96 h; for inhibition at 10 µM: SW480, read-out: percent inhibition at 10 μM.

Regarding `Cn1cc(-c2ccc3cnc(NC(=O)c4coc(C5CCNCC5)n4)cc3n2)cn1` [Compound 241, N-(2-(1-Methyl-1H-pyrazol-4-yl)-1,6-naphthyridin-7-yl)-2-(piperidin-4-yl) oxazole-4-carboxamide], the EC50 in experiment [1] was 0.388 µM; in experiment [2], 1.58 µM; at DYRK1A kinase it was 0.067 µM; in the experiment with IL-6, 3.72 µM; on GSK3β kinase, 0.166 µM; in experiment [3], 0.466 µM.

Take `CN1CCC(Oc2cccc(C(=O)Nc3cc4nc(-c5cnco5)ccc4cn3)c2)CC1` [Compound 591, 3-((1-Methylpiperidin-4-yl)oxy)-N-(2-(oxazol-5-yl)-1,6-naphthyridin-7-yl)benzamide]: the EC50 is 6.06 µM in experiment [1]; greater than 10 µM in experiment [2]; greater than 10 µM on DYRK1A kinase; greater than 10 µM with IL-6; greater than 10 µM on GSK3β kinase; 3.25 µM in experiment [3]. Moreover, the inhibition at 10 µM is 13.3% in experiment [2] and 0% with IL-6.

Regarding `CN1CCC(C(=O)Nc2cc3nc(-c4cnsc4)ccc3cn2)CC1` [Compound 692, N-(2-(Isothiazol-4-yl)-1,6-naphthyridin-7-yl)-1-methylpiperidine-4-carboxamide], the EC50 in experiment [1] is greater than 10 µM; in experiment [2] it was greater than 10 µM; at DYRK1A kinase it was 1.01 µM; in the experiment with IL-6, 6.73 µM; at GSK3β kinase, greater than 10 µM; in experiment [3] it was greater than 10 µM. For the same compound, the inhibition at 10 µM in experiment [1] is 38.6%; in experiment [2], 3.8%; in experiment [3] it was 28.7%.

Consider `Cn1cc(-c2ccc3cnc(NC(=O)C4CCN(CC5(C(F)(F)F)CC5)CC4)cc3n2)nn1` [Compound 347, N-(2-(1-Methyl-1H-1,2,3-triazol-4-yl)-1,6-naphthyridin-7-yl)-1-((1-(trifluoromethyl)cyclopropyl)methyl)piperidine-4-carboxamide], for which the 50% effective concentration (EC50) in experiment [1] was greater than 10 µM; in experiment [2] it was greater than 10 µM; at DYRK1A kinase it was 9.99 µM; with IL-6, greater than 10 µM; at GSK3β kinase, greater than 10 µM; in experiment [3] it was greater than 10 µM. Further, the inhibition at 10 µM in experiment [1] was 28.7%; in experiment [2] it was 20.7%; with IL-6, 4%; in experiment [3], 10.7%.

`Cn1cc(-c2ccc3cnc(NC(=O)C4CCN(S(C)(=O)=O)CC4)nc3c2)cn1` [Compound 979, N-(7-(1-methyl-1H-pyrazol-4-yl)quinazolin-2-yl)-1-(methylsulfonyl)piperidine-4-carboxamide]: the EC50 (in experiment [1]; in experiment [2]; on DYRK1A kinase; in the experiment with IL-6; at GSK3β kinase; in experiment [3]) was greater than 10 µM throughout. Also, the inhibition at 10 µM in experiment [1] amounted to 20.3%; in experiment [2], 23.2%; in the experiment with IL-6, 6.4%; in experiment [3] it was 16.7%.

Take `CN1CCN(c2cc(C(=O)Nc3cc4cc(-c5cncc(N)c5)ncc4cn3)ccn2)CC1` [Compound 4432, N-(6-(5-Aminopyridin-3-yl)-2,7-naphthyridin-3-yl)-2-(4-methylpiperazin-1-yl)isonicotinamide]: the EC50 in experiment [1] was 2 µM; in experiment [2], 1.72 µM; on DYRK1A kinase, 0.002 µM; with IL-6 it was greater than 10 µM; on GSK3β kinase, greater than 10 µM; in experiment [3] it was 2.03 µM. Also, in the experiment on IL-6, the inhibition at 10 µM worked out at 1.4%.

With `CC(F)(F)CN1CCC(C(=O)Nc2cc3cc(-c4cnco4)ncc3cn2)CC1` [Compound 4167, 1-(2,2-Difluoropropyl)-N-(6-(oxazol-5-yl)-2,7-naphthyridin-3-yl)piperidine-4-carboxamide], the half-maximal effective concentration (EC50) was greater than 10 µM in experiment [1]; greater than 10 µM in experiment [2]; 3.2 µM at DYRK1A kinase; greater than 10 µM with IL-6; 0.127 µM at GSK3β kinase; greater than 10 µM in experiment [3]. Besides, the inhibition at 10 µM was 8.9% in experiment [1], 43% in experiment [2], 4.9% in the experiment with IL-6 and 11.9% in experiment [3].

Take `Cc1nnc(-c2cc3cc(NC(=O)c4ccnc(N5CCN(C)CC5)c4)ncc3cn2)s1` [Compound 4377, N-(6-(5-Methyl-1,3,4-thiadiazol-2-yl)-2,7-naphthyridin-3-yl)-2-(4-methylpiperazin-1-yl)isonicotinamide]: the EC50 is greater than 10 µM in experiment [1]; 2.96 µM in experiment [2]; 0.253 µM at DYRK1A kinase; greater than 10 µM in the experiment on IL-6; greater than 10 µM on GSK3β kinase; 5.4 µM in experiment [3]. Moreover, the inhibition at 10 µM was 28.6% in experiment [1] and 5.7% in the experiment with IL-6.

Turning to `CC(C(=O)Nc1ncc2ccc(-c3cnn(C)c3)cc2n1)N1CCCCC1` (stereo not drawn) [Compound 978, N-(7-(1-Methyl-1H-pyrazol-4-yl)quinazolin-2-yl)-2-(piperidin-1-yl)propanamide], the EC50 is greater than 10 µM in experiment [1]; 2.73 µM in experiment [2]; 0.171 µM on DYRK1A kinase; greater than 10 µM in the experiment with IL-6; 0.087 µM on GSK3β kinase; greater than 10 µM in experiment [3]. The inhibition at 10 µM was determined as 37.2% in experiment [1], 6.9% in the experiment on IL-6 and 50% in experiment [3].

`Cc1nnc(-c2ccc3cnc(NC(=O)CN4C5CCC4COC5)nc3c2)s1` [Compound 1634, 2-(3-Oxa-8-azabicyclo[3.2.1]octan-8-yl)-N-(7-(5-methyl-1,3,4-thiadiazol-2-yl)quinazolin-2-yl)acetamide]: the EC50 is greater than 10 µM in experiment [1]; greater than 10 µM in experiment [2]; 0.342 µM on DYRK1A kinase; greater than 10 µM in the experiment with IL-6; 0.224 µM on GSK3β kinase; greater than 10 µM in experiment [3]. Moreover, the inhibition at 10 µM amounted to 16.4% in experiment [1], 18.3% in experiment [2], 5.4% in the experiment on IL-6 and 13.7% in experiment [3].

As to `Cc1ncc(-c2ccc3cnc(NC(=O)Cn4ccnc4)nc3c2)o1` [Compound 1495, 2-(1H-Imidazol-1-yl)-N-(7-(2-methyloxazol-5-yl)quinazolin-2-yl)acetamide], the EC50 was 1.51 µM in experiment [1]; greater than 10 µM in experiment [2]; 0.113 µM on DYRK1A kinase; greater than 10 µM in the experiment with IL-6; 0.254 µM at GSK3β kinase; greater than 10 µM in experiment [3]. Moreover, the values for the inhibition at 10 µM (in experiment [2]; in the experiment with IL-6; in experiment [3]) were 48.5%, 3.2% and 25.5%, respectively.

On to `CN1CCN(c2cc(C(=O)Nc3cc4cc(-c5ccc(N)nc5)cnc4cn3)ccn2)CC1` [Compound 3527, N-(3-(6-Aminopyridin-3-yl)-1,7-naphthyridin-6-yl)-2-(4-methylpiperazin-1-yl)isonicotinamide], for which the EC50 is greater than 10 µM in experiment [1]; 3.5 µM in experiment [2]; 0.294 µM at DYRK1A kinase; greater than 10 µM in the experiment on IL-6; greater than 10 µM on GSK3β kinase; greater than 10 µM in experiment [3]. The inhibition at 10 µM in experiment [1] turned out to be 42.5%; in the experiment with IL-6 it was 0%; in experiment [3] it was 41.8%.
